{"source": "patent US11148998B2", "about": "“Dimethyl-nonatetraenyl-trimethyl-cyclohexyl compounds and uses thereof” (The Regents of the University of Michigan, priority 2017, dated 2021)", "system": "NB4 cells (PML cell line)", "test": "NB4 cell differentiation (morphology, phase contrast)", "assay_type": "cell-based", "details": "50 μg/mL, 48 hours", "experimental": "FIGS. 8A & FIG. 8B: Morphological change with Compound 2. Control NB4 cells are shown after 48 hours incubation in culture medium in FIG. 8A.\nConcentration-dependent and time-dependent growth inhibition studies were carried out in vitro. Cells were plated in wells of a 24-well dish at 5×10^4 cells per well in maintenance media (DMEM+2% fetal bovine serum. Each of the experimental retinoids were added at the desired concentrations and the cells incubated for 3 days. At the end of the incubation period, cells were counted using an electronic particle counter. Viability was determined by exclusion of trypan blue. To assess differentiation, cells were treated for three days with either the desired agent (or control) in culture medium. At the end of the incubation period, the cells were photographed under phase-contrast microscopy.\nInhibition could be seen at both 48 and 72 hours of incubation. […] The polarized, flattened morphology is evidence of differentiation. These studies, thus, indicate that the experimental retinoids have potential as anti-cancer agents."}
{"molecule": "CC1=C(/C=C/C(C)=C\\C=C\\C(C)=C\\C(=O)N(C)CC(=O)c2ccccc2)C(C)(C)CCC1", "note": "[Example 2, (2E,4E 6Z,8E)-N,3,7-trimethyl—N-(2-oxo-2-phenylethyl)-9-(2,6,6-trimethylcyclohex-1-en-1-yl)nona-2,4,6,8-tetraenamide]", "values": [{"measurement": "morphological change (evidence of differentiation)", "result": "polarized and flattened"}]}
